# Assay results reported in ChEMBL document CHEMBL3217662 (Medchemcomm, 2011).
# How the values were obtained:
# [1] = Cytotoxicity against human HepG2 cells assessed as reduction in cell viability after 5 days by XTT assay; assay type: cell-based
# [2] = Cytotoxicity against human MT2 cells assessed as reduction in cell viability after 5 days by XTT assay; assay type: cell-based
# [3] = test system: Human immunodeficiency virus 1; experiment: Antiviral activity against wild type HIV1 3B infected in human MT2 cells assessed as virus-induced cytopathic effect after 5 days by XTT assay; assay type: functional, organism-based; conditions: Human immunodeficiency virus 1, 3B, MT2, 120 h
# [4] = test system: Human immunodeficiency virus 1; experiment: Fold resistance, ratio of EC50 for HIV1 3B harboring protease I84V/L90M mutant infected in human MT2 cells to EC50 for wild type HIV1 3B infected in human MT2 cells; assay type: functional
# Protease = Protease (Human immunodeficiency virus 1, UniProt Q9YQ12); experiment: Inhibition of HIV1 protease using fluorogenic hexapeptide substrate (2-aminobenzoyl)Thr-Ile-Nle-(p-nitro)Phe-Gln-Arg by fluorimeter
# [5] = test system: Human immunodeficiency virus 1; experiment: Fold resistance, ratio of EC50 for HIV1 3B harboring protease G48V/I54V/V82S mutant infected in human MT2 cells to EC50 for wild type HIV1 3B infected in human MT2 cells; assay type: functional
# [6] = test system: Human immunodeficiency virus 1; experiment: Fold resistance, ratio of EC50 for HIV1 3B harboring protease D30N/54V/L90M mutant infected in human MT2 cells to EC50 for wild type HIV1 3B infected in human MT2 cells; assay type: functional
# [7] = test system: Human immunodeficiency virus 1; experiment: Fold resistance, ratio of EC50 for HIV1 3B harboring protease M46I/I50V mutant infected in human MT2 cells to EC50 for wild type HIV1 3B infected in human MT2 cells; assay type: functional
# [8] = test system: Human immunodeficiency virus 1; experiment: Fold resistance, ratio of EC50 for HIV1 3B harboring protease M46I/V82T/L90M mutant infected in human MT2 cells to EC50 for wild type HIV1 3B infected in human MT2 cells; assay type: functional
# [9] = test system: Human immunodeficiency virus 1; experiment: Fold resistance, ratio of EC50 for HIV1 3B harboring protease G48V/V82A/I84V/L90M mutant infected in human MT2 cells to EC50 for wild type HIV1 3B infected in human MT2 cells; assay type: functional
# [10] = (§1) Intrinsic clearance in human liver microsomes in presence of 1 uM RTV; assay type: ADME; conditions: liver microsomes, with RTV 1 uM, read-out: CLH
# [11] = (§2) Intrinsic clearance in human liver microsomes in presence of 1 uM COBI; assay type: ADME; conditions: liver microsomes, with COBI 1 uM, read-out: CLH
# [12] = Intrinsic clearance in human liver microsomes; assay type: ADME; conditions: read-out: CLH
# [13] = Oral bioavailability in Beagle dog at 10 mg/kg; assay type: ADME, organism-based, Canis lupus familiaris; conditions: in vivo
# [14] = test system: Human immunodeficiency virus 1; experiment: Antiviral activity against wild type HIV1 3B infected in human MT2 cells assessed as fold resistance after 11 months incubation; assay type: functional
# [15] = Clearance in Beagle dog at 2 mg/kg, iv over 30 mins; assay type: ADME, organism-based, Canis lupus familiaris; design: dose 2 mg/kg, route intravenous; conditions: in vivo
# [16] = test system: Human immunodeficiency virus 1; experiment: Antiviral activity against wild type HIV1 3B infected in human MT2 cells assessed as virus-induced cytopathic effect after 5 days by XTT assay relative to in the presence of 50% pooled human serum; assay type: functional
# [17] = Oral bioavailability in Beagle dog at 10 mg/kg in presence of 10 mg/kg COBI; assay type: ADME, organism-based, Canis lupus familiaris; conditions: in vivo
# Liver microsome [18] = experiment: as §1; assay type: ADME; conditions: microsomes
# Liver microsome [19] = experiment: as §2; assay type: ADME; conditions: microsomes
# Chain of Protease (Q9YQ12 whole entry): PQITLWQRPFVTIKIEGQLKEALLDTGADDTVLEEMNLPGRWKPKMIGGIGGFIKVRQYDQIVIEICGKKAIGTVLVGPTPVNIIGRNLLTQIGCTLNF
compound,measurement,setting,value
CC(C)(C)NC(=O)[C@@H]1C[C@@H]2CCCC[C@@H]2CN1C[C@@H](O)[C@H](Cc1ccccc1)NC(=O)[C@H](CC(N)=O)NC(=O)c1ccc2ccccc2n1,CC50 at 120 h,[1],12400 nM
same,CC50 at 120 h,[2],32300 nM
same,EC50,[3],13.6 nM
CC(C)CN(C[C@@H](O)[C@H](Cc1ccccc1)NC(=O)O[C@H]1CCOC1)S(=O)(=O)c1ccc(N)cc1,CC50 at 120 h,[1],98400 nM
same,CC50 at 120 h,[2],> 100000 nM
same,Ratio EC50,[4],16.3
same,Ki,Protease,0.345 nM
same,Ratio EC50,[5],0.9
same,Ratio EC50,[6],0.8
same,Ratio EC50,[7],159
same,EC50,[3],24 nM
same,Ratio EC50,[8],5.9
same,Ratio EC50,[9],20
CCOP(=O)(COc1ccc(C[C@H](NC(=O)O[C@H]2CO[C@H]3OCC[C@H]32)[C@H](O)CN(CC(C)C)S(=O)(=O)c2ccc(OC)cc2)cc1)OCC,CC50 at 120 h,[1],61300 nM
same,microsomal CLint,[10],2.6 µL/min/mg
same,CC50 at 120 h,[2],> 100000 nM
same,Ratio EC50,[4],0.7
same,Ki,Protease,0.0081 nM
same,microsomal CLint,[11],1 µL/min/mg
same,microsomal CLint,[12],9.2 µL/min/mg
same,Ratio EC50,[5],0.1
same,bioavailability,[13],6.9%
same,fold change (FC),[14],15
same,clearance,[15],35.5 mL/min/kg
same,Ratio EC50,[6],0.2
same,Ratio EC50,[16],2.7
same,Ratio EC50,[7],2.4
same,EC50,[3],3.5 nM
same,Ratio EC50,[8],0.9
same,Ratio EC50,[9],0.6
same,bioavailability,[17],100%
CC(C)CN(C[C@@H](O)[C@H](Cc1ccccc1)NC(=O)O[C@H]1CO[C@H]2OCC[C@H]21)S(=O)(=O)c1ccc(N)cc1,CC50 at 120 h,[1],95500 nM
same,microsomal CLint,[10],1.6 µL/min/mg
same,CC50 at 120 h,[2],> 100000 nM
same,microsomal CLint,[11],0.9 µL/min/mg
same,microsomal CLint,[12],30.9 µL/min/mg
same,EC50,[3],2.3 nM
COc1ccc(S(=O)(=O)N(CC(C)C)C[C@@H](O)[C@H](Cc2ccc(O)cc2)NC(=O)O[C@H]2CO[C@H]3OCC[C@H]32)cc1,Ratio EC50,[4],0.8
same,Ki,Protease,0.0053 nM
same,Ratio EC50,[7],5.1
same,EC50,[3],6.9 nM
COc1ccc(C[C@H](NC(=O)O[C@H]2CO[C@H]3OCC[C@H]32)[C@H](O)CN(CC(C)C)S(=O)(=O)c2ccc(OC)cc2)cc1,Ratio EC50,[4],17
same,Ratio EC50,[7],157
same,EC50,[3],0.06 nM
COC(=O)c1ccc(C[C@H](NC(=O)O[C@H]2CO[C@H]3OCC[C@H]32)[C@H](O)CN(CC(C)C)S(=O)(=O)c2ccc(OC)cc2)cc1,Ratio EC50,[4],1.2
same,Ki,Protease,0.0054 nM
same,Ratio EC50,[7],11
same,EC50,[3],0.3 nM
CCOP(=O)(OCC)c1ccc(C[C@H](NC(=O)O[C@H]2CO[C@H]3OCC[C@H]32)[C@H](O)CN(CC(C)C)S(=O)(=O)c2ccc(OC)cc2)cc1,Ratio EC50,[4],0.5
same,Ki,Protease,0.0012 nM
same,Ratio EC50,[7],4.5
same,EC50,[3],7.5 nM
CCOP(=O)(Cc1ccc(C[C@H](NC(=O)O[C@H]2CO[C@H]3OCC[C@H]32)[C@H](O)CN(CC(C)C)S(=O)(=O)c2ccc(OC)cc2)cc1)OCC,Ratio EC50,[4],5.8
same,Ki,Protease,0.0084 nM
same,Ratio EC50,[16],2.4
same,Ratio EC50,[7],36
same,EC50,[3],5.9 nM
CCOP(=O)(CCc1ccc(C[C@H](NC(=O)O[C@H]2CO[C@H]3OCC[C@H]32)[C@H](O)CN(CC(C)C)S(=O)(=O)c2ccc(OC)cc2)cc1)OCC,Ratio EC50,[4],0.4
same,Ki,Protease,0.0091 nM
same,Ratio EC50,[16],2.6
same,Ratio EC50,[7],3.1
same,EC50,[3],2.1 nM
COc1ccc(S(=O)(=O)N(CC(C)C)C[C@@H](O)[C@H](Cc2ccc(OCP(=O)(OC)OC)cc2)NC(=O)O[C@H]2CO[C@H]3OCC[C@H]32)cc1,Ratio EC50,[4],0.3
same,Ki,Protease,0.0181 nM
same,EC50,[3],18.8 nM
COc1ccc(S(=O)(=O)N(CC(C)C)C[C@@H](O)[C@H](Cc2ccc(OCP(=O)(OC(C)C)OC(C)C)cc2)NC(=O)O[C@H]2CO[C@H]3OCC[C@H]32)cc1,Ratio EC50,[4],1.3
same,Ki,Protease,0.0057 nM
same,Ratio EC50,[16],3.6
same,Ratio EC50,[7],6
same,EC50,[3],1.9 nM
COc1ccc(S(=O)(=O)N(CC(C)C)C[C@@H](O)[C@H](Cc2ccccc2)NC(=O)O[C@H]2CO[C@H]3OCC[C@H]32)cc1,EC50,[3],0.35 nM
CC(C)(C)NC(=O)[C@@H]1CN(Cc2cccnc2)CCN1C[C@@H](O)C[C@@H](Cc1ccccc1)C(=O)N[C@H]1c2ccccc2C[C@H]1O,CC50 at 120 h,[1],74700 nM
same,CC50 at 120 h,[2],> 100000 nM
same,EC50,[3],12.4 nM
Cc1c(O)cccc1C(=O)N[C@@H](CSc1ccccc1)[C@H](O)CN1C[C@H]2CCCC[C@H]2C[C@H]1C(=O)NC(C)(C)C,CC50 at 120 h,[1],7400 nM
same,CC50 at 120 h,[2],19100 nM
same,Ratio EC50,[4],>92
same,Ki,Protease,0.732 nM
same,Ratio EC50,[5],25.4
same,Ratio EC50,[6],>68
same,Ratio EC50,[16],19.2
same,Ratio EC50,[7],16.5
same,EC50,[3],4.9 nM
same,Ratio EC50,[8],26
same,Ratio EC50,[9],30.6
COC(=O)N[C@H](C(=O)N[C@@H](Cc1ccccc1)[C@@H](O)CN(Cc1ccc(-c2ccccn2)cc1)NC(=O)[C@@H](NC(=O)OC)C(C)(C)C)C(C)(C)C [ATAZANAVIR],CC50 at 120 h,[1],26500 nM
same,CLH,Liver microsome [18],1.4 µL/min/mg
same,CC50 at 120 h,[2],79800 nM
same,Ratio EC50,[4],>100
same,Ki,Protease,0.0479 nM
same,CLH,Liver microsome [19],0.9 µL/min/mg
same,microsomal CLint,[12],23 µL/min/mg
same,Ratio EC50,[5],127
same,Ratio EC50,[6],141
same,Ratio EC50,[16],2.4
same,Ratio EC50,[7],1.9
same,EC50,[3],2.2 nM
same,Ratio EC50,[8],43.9
same,Ratio EC50,[9],102
Cc1cccc(C)c1OCC(=O)N[C@@H](Cc1ccccc1)[C@@H](O)C[C@H](Cc1ccccc1)NC(=O)[C@H](C(C)C)N1CCCNC1=O [LOPINAVIR],CC50 at 120 h,[1],27800 nM
same,microsomal CLint,[10],1.6 µL/min/mg
same,CC50 at 120 h,[2],67900 nM
same,microsomal CLint,[11],2.7 µL/min/mg
same,microsomal CLint,[12],544 µL/min/mg
same,EC50,[3],5.6 nM
CC(C)c1nc(CN(C)C(=O)N[C@H](C(=O)N[C@@H](Cc2ccccc2)C[C@H](O)[C@H](Cc2ccccc2)NC(=O)OCc2cncs2)C(C)C)cs1 [RITONAVIR],EC50,[3],32.2 nM
